Experiment: Multiple dose trial with rotating patch application sites in early-stage Parkinson's disease: rotigotine pharmacokinetics (Example 4)
Text: Each day, a fresh patch was placed on a new skin site (abdomen, flank, upper arm, shoulder, thigh, hip) in a rotating order. The silicone transdermal patches were made in accordance with the teachings of U.S. Patent Application Publication No. US 2003/0026830 at paragraphs 38-42, U.S. Patent Application Publication No. US 2003/0027793 at paragraphs 37-41 and U.S. Pat. No. 6,884,434, columns 5-6, Example 2 and comprised the following layers and components:
The trial consisted of an Eligibility Assessment (EA), a 24-day Titration Phase (4.5 to 18.0 mg/day doses; incremental increases of 4.5mg/day every 6 days), a 6-day Maintenance Phase (18.0 mg/day dose), a 6-day De-escalation Phase (13.5/9.0/4.5mg/day decreasing dose every 2 days), and a Safety Follow-Up visit 2 days following the last dose.
The silicone transdermal patches were made in accordance with the teachings of U.S. Patent Application Publication No. US 2003/0026830 at paragraphs 3842 and U.S. Patent Application Publication No. US 2003/0027793 at paragraphs 3741 comprised the following layers and components as disclosed above
The 18.0 mg/day dose used 2×20 cm^2 patches. Initial doses were 4.5 mg/day with weekly increases of 4.5 mg/day to a maximum target dose of 18.0 mg/day.

[1] = application site Abdomen, normalized for body weight and apparent dose, Day 27 and Day 30 combined (PKS)
[2] = application site Flank, normalized for body weight and apparent dose, Day 27 and Day 30 combined (PKS)
[3] = application site Hip, normalized for body weight and apparent dose, Day 27 and Day 30 combined (PKS)
[4] = application site Shoulder, normalized for body weight and apparent dose, Day 27 and Day 30 combined (PKS)
[5] = application site Thigh, normalized for body weight and apparent dose, Day 27 and Day 30 combined (PKS)
[6] = application site Upper arm, normalized for body weight and apparent dose, Day 27 and Day 30 combined (PKS)

For CCCN(CCc1cccs1)[C@H]1CCc2c(O)cccc2C1 [rotigotine, (6S)-6{propyl[2-(2-thienyl)ethyl]amino}-5,6,7,8-tetrahydro-1-naphthalenol], the “Time to Maximum Concentration” value (Day 30, site F (flank), Geo. Mean) was 15.43 h, the “Time to Maximum Concentration” value (Days 27 and 30 combined, site UA (upper arm), Mean) was 12.71 h and the “AUC0-t,ss,normalized, Range” value [1] was 89.3 to 952.1 ng·kg·h/mL/mg. For the same compound, the “Cmax,ss, normalized, Geometric mean (SD)” value [1] was 16.367 (1.6473) ng * kg/mL/mg, the “Cmax,ss, normalized, Median” value [1] was 14.906 ng·kg/mL/mg and the “Cmax,ss, normalized, Geometric mean (SD)” value [2] was 17.168 (1.5894) ng * kg/mL/mg. The “Cmax,ss, normalized, Mean” value [2] was 18.976 ng·kg/mL/mg, the “Cmax,ss, normalized, Median” value [2] was 16.666 ng·kg/mL/mg and the “Cmax,ss, normalized, Geometric mean (SD)” value [3] was 17.253 (1.6685) ng * kg/mL/mg. The “Cmax,ss, normalized, Mean” value [3] was 19.956 ng·kg/mL/mg, the “Cmax,ss, normalized, Median” value [3] was 15.577 ng·kg/mL/mg and the “Cmax,ss, normalized, Geometric mean (SD)” value [4] was 14.499 (1.5627) ng * kg/mL/mg. The “Cmax,ss, normalized, Mean” value [4] was 15.898 ng·kg/mL/mg, the “Cmax,ss, normalized, Median” value [4] was 15.328 ng·kg/mL/mg and the “Cmax,ss, normalized, Geometric mean (SD)” value [5] was 16.046 (1.5548) ng * kg/mL/mg. The “Cmax,ss, normalized, Mean” value [5] was 17.793 ng·kg/mL/mg, the “Cmax,ss, normalized, Median” value [5] was 15.506 ng·kg/mL/mg and the “Cmax,ss, normalized, Geometric mean (SD)” value [6] was 16.508 (1.4597) ng * kg/mL/mg. For the same compound, the “Cmax,ss, normalized, Mean” value [6] was 17.727 ng·kg/mL/mg, the “Cmax,ss, normalized, Median” value [6] was 15.499 ng·kg/mL/mg and the “plasma concentration at Time 0 (Ctrough)” value (human, in vivo) was “about 1 ng/mL”. The concentration at 30 day (human, in vivo, 18 mg/day, Average Concentration, Day 30, site UA (upper arm), Median) was 0.895 ng/mL, the concentration at […] (human, in vivo, 18 mg/day, rotigotine plasma concentration Geo. Mean, Hip, Day 27, 23.5 H) was 0.875 ng/mL and the concentration at […] (human, in vivo, 18 mg/day, rotigotine plasma concentration Geo. Mean, Hip, Day 30, 23.5 H) was 0.758 ng/mL. It also gave a concentration at […] (human, in vivo, 18 mg/day, rotigotine plasma concentration Geo. Mean, Shoulder, Day 30, 23.5 H) of 0.851 ng/mL, a concentration at […] (human, in vivo, 18 mg/day, rotigotine plasma concentration Geo. Mean, Shoulder, Days 27 & 30 Combined, 23.5 H) of 0.82 ng/mL and a concentration at […] (human, in vivo, 18 mg/day, rotigotine plasma concentration Geo. Mean, Thigh, Day 30, 23.5 H) of 0.656 ng/mL. The concentration at 18 h (human, in vivo, 18 mg/day, rotigotine plasma concentration Geo. Mean, Thigh, Days 27 & 30 Combined, 18 H) was 0.895 ng/mL, the concentration at […] (human, in vivo, 18 mg/day, rotigotine plasma concentration Geo. Mean, Thigh, Days 27 & 30 Combined, 23.5 H) was 0.639 ng/mL and the concentration at […] (human, in vivo, 18 mg/day, rotigotine plasma concentration Geo. Mean, Upper Arm, Day 30, 23.5 H) was 0.833 ng/mL. It also gave a concentration at […] (human, in vivo, 18 mg/day, rotigotine plasma concentration Geo. Mean, Upper Arm, Days 27 & 30 Combined, 23.5 H) of 0.789 ng/mL, a concentration at […] (human, in vivo, 18 mg/day, rotigotine plasma concentration Max, Hip, Day 27, 23.5 H) of 1.75 ng/mL and a concentration at […] (human, in vivo, 18 mg/day, rotigotine plasma concentration Max, Hip, Day 30, 23.5 H) of 1.35 ng/mL. The concentration at […] (human, in vivo, 18 mg/day, rotigotine plasma concentration Max, Hip, Days 27 & 30 Combined, 23.5 H) was 1.75 ng/mL, the concentration at […] (human, in vivo, 18 mg/day, rotigotine plasma concentration Max, Shoulder, Day 30, 23.5 H) was 3.01 ng/mL and the concentration at […] (human, in vivo, 18 mg/day, rotigotine plasma concentration Max, Shoulder, Days 27 & 30 Combined, 23.5 H) was 3.01 ng/mL. It also gave a concentration at […] (human, in vivo, 18 mg/day, rotigotine plasma concentration Max, Thigh, Day 30, 23.5 H) of 1.59 ng/mL, a concentration at […] (human, in vivo, 18 mg/day, rotigotine plasma concentration Max, Thigh, Days 27 & 30 Combined, 23.5 H) of 1.59 ng/mL and a concentration at […] (human, in vivo, 18 mg/day, rotigotine plasma concentration Max, Upper Arm, Day 27, 23.5 H) of 1.88 ng/mL. It also gave a concentration at […] (human, in vivo, 18 mg/day, rotigotine plasma concentration Max, Upper Arm, Day 30, 23.5 H) of 1.67 ng/mL, a concentration at […] (human, in vivo, 18 mg/day, rotigotine plasma concentration Max, Upper Arm, Days 27 & 30 Combined, 23.5 H) of 1.88 ng/mL and a concentration at […] (human, in vivo, 18 mg/day, rotigotine plasma concentration Mean, Hip, Day 27, 23.5 H) of 0.96 ng/mL. The concentration at […] (human, in vivo, 18 mg/day, rotigotine plasma concentration Mean, Hip, Day 30, 23.5 H) was 0.82 ng/mL, the concentration at […] (human, in vivo, 18 mg/day, rotigotine plasma concentration Mean, Hip, Days 27 & 30 Combined, 23.5 H) was 0.89 ng/mL and the concentration at […] (human, in vivo, 18 mg/day, rotigotine plasma concentration Mean, Shoulder, Day 30, 23.5 H) was 1.02 ng/mL. It also gave a concentration at […] (human, in vivo, 18 mg/day, rotigotine plasma concentration Mean, Shoulder, Days 27 & 30 Combined, 23.5 H) of 0.966 ng/mL, a concentration at […] (human, in vivo, 18 mg/day, rotigotine plasma concentration Mean, Thigh, Day 30, 23.5 H) of 0.784 ng/mL and a concentration at […] (human, in vivo, 18 mg/day, rotigotine plasma concentration Mean, Thigh, Days 27 & 30 Combined, 23.5 H) of 0.735 ng/mL. For the same compound, the concentration at […] (human, in vivo, 18 mg/day, rotigotine plasma concentration Mean, Upper Arm, Day 27, 23.5 H) was 0.936 ng/mL, the concentration at […] (human, in vivo, 18 mg/day, rotigotine plasma concentration Mean, Upper Arm, Day 30, 23.5 H) was 0.924 ng/mL and the concentration at […] (human, in vivo, 18 mg/day, rotigotine plasma concentration Mean, Upper Arm, Days 27 & 30 Combined, 23.5 H) was 0.93 ng/mL. It also gave a concentration at […] (human, in vivo, 18 mg/day, rotigotine plasma concentration Median, Hip, Day 27, 23.5 H) of 0.957 ng/mL, a concentration at […] (human, in vivo, 18 mg/day, rotigotine plasma concentration Median, Hip, Day 30, 23.5 H) of 0.692 ng/mL and a concentration at […] (human, in vivo, 18 mg/day, rotigotine plasma concentration Median, Shoulder, Day 30, 23.5 H) of 0.848 ng/mL. For the same compound, the concentration at […] (human, in vivo, 18 mg/day, rotigotine plasma concentration Median, Shoulder, Days 27 & 30 Combined, 23.5 H) was 0.799 ng/mL, the concentration at […] (human, in vivo, 18 mg/day, rotigotine plasma concentration Median, Thigh, Day 30, 23.5 H) was 0.68 ng/mL and the concentration at […] (human, in vivo, 18 mg/day, rotigotine plasma concentration Median, Thigh, Days 27 & 30 Combined, 23.5 H) was 0.668 ng/mL. The concentration at […] (human, in vivo, 18 mg/day, rotigotine plasma concentration Median, Upper Arm, Day 30, 23.5 H) was 0.899 ng/mL, the concentration at […] (human, in vivo, 18 mg/day, rotigotine plasma concentration Median, Upper Arm, Days 27 & 30 Combined, 23.5 H) was 0.899 ng/mL and the concentration at […] (human, in vivo, 18 mg/day, rotigotine plasma concentration Min, Hip, Day 27, 23.5 H) was 0.261 ng/mL. It also gave a concentration at […] (human, in vivo, 18 mg/day, rotigotine plasma concentration Min, Hip, Day 30, 23.5 H) of 0.461 ng/mL, a concentration at […] (human, in vivo, 18 mg/day, rotigotine plasma concentration Min, Hip, Days 27 & 30 Combined, 23.5 H) of 0.261 ng/mL and a concentration at […] (human, in vivo, 18 mg/day, rotigotine plasma concentration Min, Shoulder, Day 30, 23.5 H) of 0.405 ng/mL. For the same compound, the concentration at […] (human, in vivo, 18 mg/day, rotigotine plasma concentration Min, Shoulder, Days 27 & 30 Combined, 23.5 H) was 0.387 ng/mL and the concentration at […] (human, in vivo, 18 mg/day, rotigotine plasma concentration Min, Thigh, Day 30, 23.5 H) was 0.152 ng/mL.
